# Measured values published in PMC12144822 (Parasites & Vectors, 2025).
# Entries after “also recorded” stand apart in the source; their conditions may differ. Where two headings read alike, the source gives them in different places.
# Assays:
# [1] = tested on: Hsa-GABARs; experiment: Voltage-clamp inhibition, summary over the six human subunit combinations; conditions: for average GABA current inhibition: at 30 μM, average over Hsa-GABARs
# Description: (§1) Defoliculated X. laevis oocytes ordered from Ecocyte Bioscience (Dortmund, Germany) were microinjected with 15–25 nl of cRNA solution (5–50 ng/μl) per oocyte using an automated injector (Roboinject; Multi Channel Systems MCS GmbH, Reutlingen, Germany) and then incubated at 18 °C. All recordings were made 1–5 days post-cRNA injection and were performed at 18 ± 4 °C. Cells were superfused with OR2 medium (NaCl 88 mM, KCl 2.5 mM, HEPES 5 mM, CaCl2•2H2O 1.8 mM, MgCl2•7H2O 1.0 mM, pH 7.4). To ensure that γ2 subunits were integrated into the heteropentamers, we injected fivefold more γ2 than the other subunit cRNAs. Diazepam is a positive allosteric modulator of GABAR only if γ2 subunits are present. Therefore, we used this method to confirm the presence of human and dog GABAA receptor containing the γ2 subunit.
# (§2) Voltage-clamp measurements were performed as described by Rufener et al.. Oocytes were impaled with two electrodes filled with 3 M KCl, and their membrane potentials were maintained at − 80 mV throughout the experiment. […] Recordings were performed using an automated process equipped with standard two-electrode voltage-clamp configuration (HiClamp system; Multi Channel Systems MCS GmbH). Data were filtered at 10 Hz, captured at 100 Hz and analyzed using proprietary data acquisition and analysis software in MATLAB (Mathworks Inc., Natick, MA, USA). Additional analyses were performed using Excel (Microsoft, Redmond, WA, USA). […] Graphing the maximum inward currents against the log of agonist concentration produces typical concentration-activation and concentration-inhibition curves, which can be accurately described using individual Hill equations. The concentration-activation curves were fitted using the following equation: Y=100/1+10^H(logEC50-X) where Y is the normalized response, logEC50 is the logarithm of the concentration of agonist eliciting half-maximal current amplitude, X is the log of the dose or concentration, and H is the slope factor or Hill slope. The same equation was used for the concentration-inhibition curves but logEC50 was replaced by logIC50 (half-maximal inhibitory concentration).
# (§3) The agonist and the drug were then washed off for 15 s and the oocyte was exposed again to the same drug concentration for 25 s before increasing to the next concentration.
# [2] = set-up: method as in PMID 33733534; conditions: cited from earlier work; for maximum in vivo concentration in dog plasma: oral treatment at the minimum recommended dose
# [3] = tested on: human and canine GABARs; experiment: Voltage-clamp inhibition, summary over human and canine receptors; format: cell-based; conditions: for inhibitory effect on human and canine GABARs (in words): tested up to 30 μM
# Description: as §1, §2, §3
# [4] = target: Hsa-GABA α3β2γ2 (Homo sapiens, UniProt P18507+P34903+P47870); experiment: Two-electrode voltage-clamp inhibition of GABA current, receptor expressed in Xenopus oocytes
# Source text: (§4) Complementary DNA (cDNA) encoding for the human GABAA proteins α1 (NM_001127645.2), α2 (NM_001377146.1), α3 (KJ620007.1), α4 (NM_000809.4), α5 (NM_000810.4), α6 (NM_000811.3), β2 (XM_054352312.1), β3 (M82919.1), γ2 (NM_000816.3) and δ (NM_000815.5) were ordered from Genewiz (www.genewiz.com; Leipzig, Germany); for each gene, GenBank accession numbers are provided in parentheses. When necessary, silent mutations were introduced to break NheI or XhoI internal restriction sites. The corresponding open reading frames (ORF) were cloned into the pT7-TS transcription vector (introducing X. laevis β-globin untranslated cDNA to the 5’ and 3’ ends of the gene), following a procedure described in detail in a previous publication. The same process was used to obtain cDNA encoding canine GABAA proteins α4 (XM_025435560.1), α6 (XM_022417729.1) and δ (XM_005620414.2). Gene α2 (XM_025435664.1), α3 (XM_549343.5), α5 (XM_545805.6) and β3 (XM_025437408.1) were obtained by PCR; GenBank reference accession numbers are provided in parentheses. RNA extraction, cDNA synthesis and PCR amplification were performed as described previously. Total RNA was extracted from a piece of dog brain (Beagle breed; Canis lupus familiaris) from which 1 µg of total RNA (DNase-treated) was reverse-transcribed to cDNA using a (dT)30 primer and SuperScript III Reverse Transcriptase (Invitrogen, Thermo Fisher Scientific, Waltham, MA, USA). Gene-specific primers (Additional file 1: Table S1) were designed using Primer 3 software (http://frodo.wi.mit.edu/). […] The cycling conditions were: 98 °C for 30 s; then 38 cycles of 98 °C for 10 s, 58 °C for 30 s and 72 °C for 90 s; followed by 72 °C for 5 min. The dog subunits α1 (XM_546261.5), β2 (XM_014113040.1) and γ2 (XM_546259.5) had been previously amplified and described in a study by Rufener et al..
# as §1
# as §2, with “equations.” for “equations. The concentration-activation curves were fitted using the following equation: Y=100/1+10^H(logEC50-X) where Y is the normalized response, logEC50 is the logarithm of the concentration of agonist eliciting half-maximal current amplitude, X is the log of the dose or concentration, and H is the slope factor or Hill slope. The same equation was used for the concentration-inhibition curves but logEC50 was replaced by logIC50 (half-maximal inhibitory concentration).”
# [5] = target: Hsa-GABA α1β2γ2 (Homo sapiens, UniProt P14867+P18507+P47870); experiment: as above
# Source text: as §4, §1
# as §2, with “equations.” for “equations. The concentration-activation curves were fitted using the following equation: Y=100/1+10^H(logEC50-X) where Y is the normalized response, logEC50 is the logarithm of the concentration of agonist eliciting half-maximal current amplitude, X is the log of the dose or concentration, and H is the slope factor or Hill slope. The same equation was used for the concentration-inhibition curves but logEC50 was replaced by logIC50 (half-maximal inhibitory concentration).”
# [6] = target: Hsa-GABA α2β3γ2 (Homo sapiens, UniProt P18507+P28472+P47869); experiment: as above
# Source text: as §4, §1
# as §2, with “equations.” for “equations. The concentration-activation curves were fitted using the following equation: Y=100/1+10^H(logEC50-X) where Y is the normalized response, logEC50 is the logarithm of the concentration of agonist eliciting half-maximal current amplitude, X is the log of the dose or concentration, and H is the slope factor or Hill slope. The same equation was used for the concentration-inhibition curves but logEC50 was replaced by logIC50 (half-maximal inhibitory concentration).”
# [7] = target: Hsa-GABA α6β2γ2 (Homo sapiens, UniProt P18507+P47870+Q16445); experiment: as above
# Source text: as §4, §1
# as §2, with “equations.” for “equations. The concentration-activation curves were fitted using the following equation: Y=100/1+10^H(logEC50-X) where Y is the normalized response, logEC50 is the logarithm of the concentration of agonist eliciting half-maximal current amplitude, X is the log of the dose or concentration, and H is the slope factor or Hill slope. The same equation was used for the concentration-inhibition curves but logEC50 was replaced by logIC50 (half-maximal inhibitory concentration).”
# [8] = target: Hsa-GABA α5β2γ2 (Homo sapiens, UniProt P18507+P31644+P47870); experiment: as above
# Source text: as §4, §1
# as §2, with “equations.” for “equations. The concentration-activation curves were fitted using the following equation: Y=100/1+10^H(logEC50-X) where Y is the normalized response, logEC50 is the logarithm of the concentration of agonist eliciting half-maximal current amplitude, X is the log of the dose or concentration, and H is the slope factor or Hill slope. The same equation was used for the concentration-inhibition curves but logEC50 was replaced by logIC50 (half-maximal inhibitory concentration).”
# [9] = target: Hsa-GABA α2β2γ2 (Homo sapiens, UniProt P18507+P47869+P47870); experiment: as above
# Source text: as §4, §1
# as §2, with “equations.” for “equations. The concentration-activation curves were fitted using the following equation: Y=100/1+10^H(logEC50-X) where Y is the normalized response, logEC50 is the logarithm of the concentration of agonist eliciting half-maximal current amplitude, X is the log of the dose or concentration, and H is the slope factor or Hill slope. The same equation was used for the concentration-inhibition curves but logEC50 was replaced by logIC50 (half-maximal inhibitory concentration).”
# [10] = target: Clu-GABA α1β2γ2 (Canis lupus familiaris, UniProt A0A2H4NNI8+A0A8I3RPG5+E2RSQ0); experiment: as above; format: cell-based
# Source text: as §4, §1
# as §2, with “equations.” for “equations. The concentration-activation curves were fitted using the following equation: Y=100/1+10^H(logEC50-X) where Y is the normalized response, logEC50 is the logarithm of the concentration of agonist eliciting half-maximal current amplitude, X is the log of the dose or concentration, and H is the slope factor or Hill slope. The same equation was used for the concentration-inhibition curves but logEC50 was replaced by logIC50 (half-maximal inhibitory concentration).”
# [11] = target: Clu-GABA α2β2γ2 (Canis lupus familiaris, UniProt A0A8I3RPG5+A0A8I3S1N5+E2RSQ0); experiment: as above; format: cell-based
# Source text: as §4, §1
# as §2, with “equations.” for “equations. The concentration-activation curves were fitted using the following equation: Y=100/1+10^H(logEC50-X) where Y is the normalized response, logEC50 is the logarithm of the concentration of agonist eliciting half-maximal current amplitude, X is the log of the dose or concentration, and H is the slope factor or Hill slope. The same equation was used for the concentration-inhibition curves but logEC50 was replaced by logIC50 (half-maximal inhibitory concentration).”
# [12] = target: Clu-GABA α3β2γ2 (Canis lupus familiaris, UniProt A0A8I3PRS3+A0A8I3RPG5+E2RSQ0); experiment: as above; format: cell-based
# Source text: as §4, §1
# as §2, with “equations.” for “equations. The concentration-activation curves were fitted using the following equation: Y=100/1+10^H(logEC50-X) where Y is the normalized response, logEC50 is the logarithm of the concentration of agonist eliciting half-maximal current amplitude, X is the log of the dose or concentration, and H is the slope factor or Hill slope. The same equation was used for the concentration-inhibition curves but logEC50 was replaced by logIC50 (half-maximal inhibitory concentration).”
# [13] = target: Clu-GABA α2β3γ2 (Canis lupus familiaris, UniProt A0A8I3NUI4+A0A8I3S1N5+E2RSQ0); experiment: as above; format: cell-based
# Source text: as §4, §1
# as §2, with “equations.” for “equations. The concentration-activation curves were fitted using the following equation: Y=100/1+10^H(logEC50-X) where Y is the normalized response, logEC50 is the logarithm of the concentration of agonist eliciting half-maximal current amplitude, X is the log of the dose or concentration, and H is the slope factor or Hill slope. The same equation was used for the concentration-inhibition curves but logEC50 was replaced by logIC50 (half-maximal inhibitory concentration).”
# [14] = target: Clu-GABA α5β2γ2 (Canis lupus familiaris, UniProt A0A8I3PC22+A0A8I3RPG5+E2RSQ0); experiment: as above; format: cell-based
# Source text: as §4, §1
# as §2, with “equations.” for “equations. The concentration-activation curves were fitted using the following equation: Y=100/1+10^H(logEC50-X) where Y is the normalized response, logEC50 is the logarithm of the concentration of agonist eliciting half-maximal current amplitude, X is the log of the dose or concentration, and H is the slope factor or Hill slope. The same equation was used for the concentration-inhibition curves but logEC50 was replaced by logIC50 (half-maximal inhibitory concentration).”
# [15] = tested on: Clu-GABARs; experiment: Voltage-clamp inhibition, summary over the five canine subunit combinations; format: cell-based, Canis lupus familiaris; conditions: at 30 μM
# Description: as §1, §2, §3
# [16] = set-up: method as in PMID 40269978; conditions: MDR1 mutant dog breeds; cited from earlier work
# [17] = tested on: human and dog GABAA receptor containing the γ2 subunit; experiment: Positive modulation by diazepam to confirm γ2 incorporation; format: cell-based; conditions: all receptor subtypes expressed; data not shown
# Description: as §1
# [18] = Xenopus oocytes, −80 mV, 60 s pre-exposure, co-applied with GABA 1 µM (near EC10)
# [19] = Xenopus oocytes, −80 mV, 60 s pre-exposure, co-applied with GABA 0.3 µM (near EC10)
# Sequence of Hsa-GABA α3β2γ2 (P34903 29-492): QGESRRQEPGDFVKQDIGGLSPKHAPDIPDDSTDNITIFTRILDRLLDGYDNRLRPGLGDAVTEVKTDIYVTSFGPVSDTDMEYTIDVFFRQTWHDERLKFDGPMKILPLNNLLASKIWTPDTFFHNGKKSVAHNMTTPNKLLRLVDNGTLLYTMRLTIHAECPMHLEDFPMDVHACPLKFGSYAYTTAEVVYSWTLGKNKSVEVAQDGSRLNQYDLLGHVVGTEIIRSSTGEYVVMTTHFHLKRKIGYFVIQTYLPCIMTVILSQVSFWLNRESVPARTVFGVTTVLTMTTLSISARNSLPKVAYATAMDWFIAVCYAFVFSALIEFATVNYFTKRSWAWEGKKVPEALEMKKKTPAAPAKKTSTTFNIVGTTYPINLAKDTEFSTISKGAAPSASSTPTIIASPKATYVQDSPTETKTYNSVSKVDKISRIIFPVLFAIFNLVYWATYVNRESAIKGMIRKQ
# Sequence of Hsa-GABA α3β2γ2 (P47870 26-474 isoform P47870-1 limits assumed): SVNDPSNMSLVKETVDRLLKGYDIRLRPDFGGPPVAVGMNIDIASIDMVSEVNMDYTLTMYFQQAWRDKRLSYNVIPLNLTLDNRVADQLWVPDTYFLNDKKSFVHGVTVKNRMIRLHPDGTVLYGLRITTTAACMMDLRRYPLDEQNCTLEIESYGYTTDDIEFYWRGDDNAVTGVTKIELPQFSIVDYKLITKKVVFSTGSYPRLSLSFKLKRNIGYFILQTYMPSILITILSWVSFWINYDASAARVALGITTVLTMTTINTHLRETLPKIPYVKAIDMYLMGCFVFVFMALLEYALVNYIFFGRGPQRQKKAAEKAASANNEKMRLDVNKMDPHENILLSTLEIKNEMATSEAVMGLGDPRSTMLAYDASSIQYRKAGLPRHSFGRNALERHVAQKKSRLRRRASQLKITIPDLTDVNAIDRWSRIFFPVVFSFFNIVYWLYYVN
# Sequence of Hsa-GABA α3β2γ2 (P18507 40-467 isoform P18507-1 limits assumed): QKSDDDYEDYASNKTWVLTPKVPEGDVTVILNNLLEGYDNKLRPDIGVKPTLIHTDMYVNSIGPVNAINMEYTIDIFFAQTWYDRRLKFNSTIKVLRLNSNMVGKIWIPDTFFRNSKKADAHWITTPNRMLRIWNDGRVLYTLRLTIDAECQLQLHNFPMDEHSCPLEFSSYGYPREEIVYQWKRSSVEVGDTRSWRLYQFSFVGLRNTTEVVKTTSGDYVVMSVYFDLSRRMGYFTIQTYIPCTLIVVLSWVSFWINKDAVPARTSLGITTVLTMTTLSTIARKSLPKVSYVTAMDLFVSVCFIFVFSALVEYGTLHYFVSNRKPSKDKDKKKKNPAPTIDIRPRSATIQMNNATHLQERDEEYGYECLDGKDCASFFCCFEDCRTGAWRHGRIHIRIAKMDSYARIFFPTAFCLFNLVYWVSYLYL
# Sequence of Clu-GABA α3β2γ2 (A0A8I3PRS3 29-259): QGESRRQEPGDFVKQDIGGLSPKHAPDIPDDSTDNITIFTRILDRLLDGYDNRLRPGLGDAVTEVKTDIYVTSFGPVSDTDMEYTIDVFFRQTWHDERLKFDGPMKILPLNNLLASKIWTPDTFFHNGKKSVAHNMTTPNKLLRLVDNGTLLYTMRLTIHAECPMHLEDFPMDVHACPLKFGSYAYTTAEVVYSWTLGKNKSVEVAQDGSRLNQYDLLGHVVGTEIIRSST
# Sequence of Clu-GABA α3β2γ2 (A0A8I3RPG5 25-473): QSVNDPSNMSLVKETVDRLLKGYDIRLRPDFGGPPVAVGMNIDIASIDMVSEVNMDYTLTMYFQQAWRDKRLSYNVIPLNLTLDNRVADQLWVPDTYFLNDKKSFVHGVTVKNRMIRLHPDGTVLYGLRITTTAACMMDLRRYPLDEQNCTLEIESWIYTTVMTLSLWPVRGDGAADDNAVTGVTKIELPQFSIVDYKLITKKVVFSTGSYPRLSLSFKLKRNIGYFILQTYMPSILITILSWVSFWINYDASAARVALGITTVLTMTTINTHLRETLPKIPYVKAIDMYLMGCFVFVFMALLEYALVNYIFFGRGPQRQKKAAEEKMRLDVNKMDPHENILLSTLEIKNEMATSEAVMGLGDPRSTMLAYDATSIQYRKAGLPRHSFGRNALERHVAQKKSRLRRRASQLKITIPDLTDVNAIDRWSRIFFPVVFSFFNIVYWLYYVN
# Sequence of Clu-GABA α3β2γ2 (E2RSQ0 40-467): as the sequence (P18507 40-467 isoform P18507-1 limits assumed) above
# Sequence of Clu-GABA α5β2γ2 (A0A8I3PC22 32-462): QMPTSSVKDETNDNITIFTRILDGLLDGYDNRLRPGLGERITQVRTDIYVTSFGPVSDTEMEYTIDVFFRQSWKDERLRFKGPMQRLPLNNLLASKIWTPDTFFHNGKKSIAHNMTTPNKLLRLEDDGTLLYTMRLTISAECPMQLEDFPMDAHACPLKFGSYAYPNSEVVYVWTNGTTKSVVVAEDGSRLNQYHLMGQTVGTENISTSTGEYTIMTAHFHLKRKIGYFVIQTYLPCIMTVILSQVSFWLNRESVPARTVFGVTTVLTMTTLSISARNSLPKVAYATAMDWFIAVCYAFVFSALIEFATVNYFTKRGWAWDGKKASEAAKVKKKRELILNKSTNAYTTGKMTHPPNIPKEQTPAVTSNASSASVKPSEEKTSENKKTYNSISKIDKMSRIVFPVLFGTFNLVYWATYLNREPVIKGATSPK
# Sequence of Clu-GABA α5β2γ2 (A0A8I3RPG5 25-473): as the sequence (A0A8I3RPG5 25-473) above
# Sequence of Clu-GABA α5β2γ2 (E2RSQ0 40-467): as the sequence (P18507 40-467 isoform P18507-1 limits assumed) above
compound,measurement,setting,value
"Cc1cc(C2=NO[C@@](c3cc(Cl)c(Cl)c(Cl)c3)(C(F)(F)F)C2)sc1C(=O)NCC(=O)NCC(F)(F)F [Lotilaner, lotilaner]",average GABA current inhibition,[1],13%
same,maximum in vivo concentration in dog plasma,[2],6.7 µM
same,IC50,[3]; range or bound over all eleven subunit combinations,> 30 µM
same,inhibitory effect on human and canine GABARs (in words),[3],inactive
same,inhibitory effect on human and canine GABARs (in words),[3]; listed as lotilaner,little or no inhibitory effect; also recorded: did not show any significant inhibition
same,IC50,[4],> 30 µM
same,IC50,[5],> 30 µM
same,IC50,[6],> 30 µM
same,IC50,[7],> 30 µM
same,IC50,[8],> 30 µM
same,IC50,[9],> 30 µM
same,IC50,[10],> 30 µM
same,IC50,[11],> 30 µM
same,IC50,[12],> 30 µM
same,IC50,[13],> 30 µM
same,IC50,[14],> 30 µM
same,average GABA current inhibition,[15],20%
same,neurological symptoms (in words),[16],did not reveal neurological symptoms
"CS(=O)(=O)CC(=O)N1CC2(C1)OCc1cc(C3=NO[C@@](c4cc(Cl)c(F)c(Cl)c4)(C(F)(F)F)C3)ccc12 [Sarolaner, sarolaner]",average GABA current inhibition,[1],53%
same,inhibition of human GABARs (in words),[1]; tested up to 30 μM,partial inhibition
same,Cmax,"[2]; dose of 2 mg/kg body weight, read-out: Cmax in dog plasma",1900 nM
same,maximum in vivo concentration in dog plasma,[2],1.9 µM
same,inhibitory effect on human and canine GABARs (in words),[3],partial to high inhibition
same,IC50,[4]; [18],13.4 µM
same,IC50,[5]; [18],21.9 µM
same,IC50,[6]; [18],> 30 µM
same,IC50,[7]; [19],16.1 µM
same,IC50,[8]; [19],8.4 µM
same,IC50,"[9]; Xenopus oocytes, −80 mV, 60 s pre-exposure, co-applied with GABA 3 µM (near EC10)",19.5 µM
same,IC50,[10]; [18],21.8 µM
same,IC50,"[11]; Xenopus oocytes, −80 mV, 60 s pre-exposure, co-applied with GABA 5 µM (near EC10)",10.2 µM
same,IC50,"[12]; Xenopus oocytes, −80 mV, 60 s pre-exposure, co-applied with GABA 0.5 µM (near EC10)",13.1 µM
same,IC50,[13]; [18],13.4 µM
same,IC50,[14]; [18],10.2 µM
same,average GABA current inhibition,[15],57%
CN1C(=O)CN=C(c2ccccc2)c2cc(Cl)ccc21 [diazepam],positive modulation,[17],> 200%
